Read-outs that look alike come from different tables or passages of the source.
Assays:
5-HT2A receptor [1] = biological target: T1, 5-HT2A receptor (Homo sapiens (Human), UniProt P28223); experiment: DOI radioligand binding assay, 5-HT2A
Experimental: (§1) For the compounds of Table A, the following procedure was used. HEK293 cells stably expressing recombinant 5-HT2 receptors were harvested, suspended in ice-cold phosphate buffered saline, pH 7.4 (PBS), and then centrifuged at 48,000 g for 20 min at 4° C. The resulting cell pellet was then re-suspended in wash buffer containing 20 mM HEPES, pH 7.4 and 0.1 mM EDTA, homogenized on ice using a Brinkman Polytron, and centrifuged (48,000 g for 20 min at 4° C.). The pellet was then resuspended in 20 mM HEPES, pH 7.4, homogenized on ice, and centrifuged (48,000 g for 20 min at 4° C.). Crude membrane pellets were stored at −80° C. until used for radioligand binding assays.
(§2) For the compounds of Table A, the following procedure was used. […] Experiments comprised addition of 95 μL of assay buffer (20 mM HEPES, pH 7.4, 10 mM MgCl2), 50 μL of membranes, 50 μL of radioligand stock, and 5 μL of test compound diluted in assay buffer to 96-well microtiter plates, which were then incubated for 1 h at room temperature. Assay incubations were terminated by rapid filtration through PerkinElmer F/C filtration plates under reduced pressure using a 96-well Packard filtration apparatus, followed by washing three times with ice cold assay buffer. Plates were then dried at 45° C. for a minimum of 2 h. Finally, 25 μL of BetaScint™ scintillation cocktail was added to each well and the plates were counted in a Packard TopCount® scintillation counter. In each competition study, test compounds were dosed at ten concentrations with triplicate determinations at each test concentration.

5-HT2C receptor [2] = biological target: T2, 5-HT2C receptor (Homo sapiens (Human), UniProt P28335); experiment: DOI radioligand binding assay, 5-HT2C
T2 sequence (P28335 33-458): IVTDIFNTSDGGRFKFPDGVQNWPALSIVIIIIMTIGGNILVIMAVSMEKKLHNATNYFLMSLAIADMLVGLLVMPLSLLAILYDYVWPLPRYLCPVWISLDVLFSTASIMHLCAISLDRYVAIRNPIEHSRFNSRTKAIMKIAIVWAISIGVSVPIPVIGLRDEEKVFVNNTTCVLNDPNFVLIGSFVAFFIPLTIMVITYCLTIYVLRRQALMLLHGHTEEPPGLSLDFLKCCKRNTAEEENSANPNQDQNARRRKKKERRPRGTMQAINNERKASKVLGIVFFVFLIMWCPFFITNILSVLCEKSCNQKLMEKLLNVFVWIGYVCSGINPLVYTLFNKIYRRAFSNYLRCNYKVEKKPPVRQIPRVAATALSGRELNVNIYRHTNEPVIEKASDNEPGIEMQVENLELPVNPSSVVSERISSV
Experimental: as §1, §2

5-HT2B receptor [3] = biological target: T3, 5-HT2B receptor (Homo sapiens (Human), UniProt P41595); experiment: DOI radioligand binding assay, 5-HT2B; details: [125I]DOI competition, HEK293 cell membranes
T3 sequence (P41595 whole entry): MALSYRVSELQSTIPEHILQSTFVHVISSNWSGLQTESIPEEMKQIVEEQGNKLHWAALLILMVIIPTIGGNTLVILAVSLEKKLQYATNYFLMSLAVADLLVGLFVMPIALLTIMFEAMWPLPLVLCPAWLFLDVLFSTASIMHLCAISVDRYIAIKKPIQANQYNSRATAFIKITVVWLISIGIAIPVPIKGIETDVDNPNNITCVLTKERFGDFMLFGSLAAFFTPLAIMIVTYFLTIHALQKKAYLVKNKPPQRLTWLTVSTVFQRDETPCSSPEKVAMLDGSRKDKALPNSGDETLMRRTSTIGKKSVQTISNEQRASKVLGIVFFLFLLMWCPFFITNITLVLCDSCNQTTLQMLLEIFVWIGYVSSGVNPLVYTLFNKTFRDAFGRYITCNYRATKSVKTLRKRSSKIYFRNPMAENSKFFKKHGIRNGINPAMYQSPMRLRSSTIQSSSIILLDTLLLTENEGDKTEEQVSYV
Experimental: as §1, §2

5-HT2C receptor [4] = biological target: T2, 5-HT2C receptor; experiment: IP accumulation assay, 5-HT2C; assay type: cell-based
Experimental: (§3) HEK293 cells expressing recombinant 5-HT2 receptors were added to sterile poly-D-lysine-coated 96-well microtiter plates (35,000 cells/well) and labeled with 0.6 μCi/well of [^3H]inositol in myoinositol-free DMEM for 18 h. Unincorporated [^3H]inositol was removed by aspiration and replaced with fresh myoinositol-free DMEM supplemented with LiCl (10 mM final) and pargyline (10 μM final). Serially diluted test compounds were then added and incubation was conducted for 2 h at 37° C. (5-HT2B, and 5-HT2A) and RT (5-HT2C). Incubations were then terminated by lysing cells with the addition of ice-cold 0.1 M formic acid followed by freezing at −80° C. After thawing, total [^3H]inositol phosphates were resolved from [^3H]inositol using AG1-X8 ion exchange resin (Bio-Rad) and [^3H]inositol phosphates were measured by scintillation counting using a Perkin Elmer TopCount® scintillation counter. All EC50 determinations were performed using 10 different concentrations and triplicate determinations were made at each test concentration.

5-HT2A receptor [5] = biological target: T1, 5-HT2A receptor; experiment: IP accumulation assay, 5-HT2A; assay type: cell-based
Experimental: as §3

5-HT2B receptor [6] = biological target: T3, 5-HT2B receptor; experiment: IP accumulation assay, 5-HT2B; assay type: cell-based; details: IP accumulation, HEK293 cells, 2 h at 37° C.; read-out: EC50 5HT2B
Experimental: as §3

[7] = [125I]DOI competition, HEK293 cell membranes, read-out: DOI Binding 5HT2A
[8] = IP accumulation, HEK293 cells, 2 h at RT, read-out: EC50 5HT2C
[9] = IP accumulation, HEK293 cells, 2 h at 37° C., read-out: EC50 5HT2A

T1 sequence (P28223 whole entry): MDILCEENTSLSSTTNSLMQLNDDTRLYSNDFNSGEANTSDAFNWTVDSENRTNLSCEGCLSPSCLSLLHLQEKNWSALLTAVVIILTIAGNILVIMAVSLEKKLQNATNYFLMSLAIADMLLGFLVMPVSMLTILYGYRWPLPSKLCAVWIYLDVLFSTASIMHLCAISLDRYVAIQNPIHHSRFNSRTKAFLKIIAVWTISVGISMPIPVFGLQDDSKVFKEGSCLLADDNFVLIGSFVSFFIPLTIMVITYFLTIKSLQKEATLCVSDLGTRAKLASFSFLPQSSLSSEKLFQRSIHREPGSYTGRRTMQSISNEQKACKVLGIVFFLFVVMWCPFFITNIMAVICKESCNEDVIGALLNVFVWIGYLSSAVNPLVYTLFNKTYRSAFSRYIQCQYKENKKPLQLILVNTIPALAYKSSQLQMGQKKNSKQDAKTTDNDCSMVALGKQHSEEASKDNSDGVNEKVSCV

Row | Compound | Ki (5-HT2A receptor [1]; [7]) [nM] | Ki (5-HT2B receptor [3]) [nM] | Ki (5-HT2C receptor [2]) [nM] | further results
1 | CCc1c(CC2CCCCO2)cnc2c1CC[C@@H]1CNCCN21 (stereo partly drawn) [Compound 165, (6aR)-4-ethyl-3-((tetrahydro-2H-pyran-2-yl)methyl)-6,6a,7,8,9,10-hexahydro-5H-pyrazino[1,2-a][1,8]naphthyridine] | 890 |  |  | Ki (5-HT2C receptor [2]; read-out: DOI Binding 5HT2C): 570 nM
2 | CSc1nc(Cl)c2c(n1)N1CCCNC[C@H]1CC2 [Compound 159, (R)-4-chloro-2-(methylthio)-5,6,6a,7,8,9,10,11-octahydropyrimido[5′,4′:5,6]pyrido[1,2-a][1,4]diazepine] | 12300 | 272 |  | Ki (5-HT2C receptor [2]; read-out: DOI Binding 5HT2C): 1600 nM
3 | CCCCc1ccnc2c1CC[C@@H]1CNCCN21 [Compound 112, (R)-4-butyl-6,6a,7,8,9,10-hexahydro-5H-pyrazino[1,2-a][1,8]naphthyridine] | 10.6 |  | 0.5 | 
4 | c1ccc(Cc2ccnc3c2CC[C@@H]2CNCCN32)cc1 [Compound 106, (R)-4-benzyl-6,6a,7,8,9,10-hexahydro-5H-pyrazino[1,2-a][1,8]naphthyridine] | 1.19 |  | 0.277 | EC50 (5-HT2C receptor [4]; [8]): 0.116 nM; EC50 (5-HT2A receptor [5]; [9]): 53.2 nM
5 | CCc1c(CC2CCCCC2)cnc2c1CC[C@@H]1CNCCN21 [Compound 164, (R)-3-(cyclohexylmethyl)-4-ethyl-6,6a,7,8,9,10-hexahydro-5H-pyrazino[1,2-a][1,8]naphthyridine] | 703 |  |  | Ki (5-HT2C receptor [2]; read-out: DOI Binding 5HT2C): 233 nM
6 | Fc1cccc(Cc2ccnc3c2CC[C@@H]2CNCCN32)c1 [Compound 115, (R)-4-(3-fluorobenzyl)-6,6a,7,8,9,10-hexahydro-5H-pyrazino[1,2-a][1,8]naphthyridine] |  |  | 0.195 | EC50 (5-HT2C receptor [4]; [8]): 0.19 nM; Ki (5-HT2A receptor [1]): 0.506 nM; EC50 (5-HT2A receptor [5]; [9]): 37.2 nM
7 | CCCCCc1ccnc2c1CC[C@@H]1CNCCN21 [Compound 108, (R)-4-pentyl-6,6a,7,8,9,10-hexahydro-5H-pyrazino[1,2-a][1,8]naphthyridine] | 2.3 |  | 0.401 | 
8 | Fc1ccccc1Cc1ccnc2c1CC[C@@H]1CNCCN21 [Compound 116, (R)-4-(2-fluorobenzyl)-6,6a,7,8,9,10-hexahydro-5H-pyrazino[1,2-a][1,8]naphthyridine] | 2.65 |  | 0.304 | EC50 (5-HT2C receptor [4]): 0.314 nM; EC50 (5-HT2A receptor [5]): 152 nM
9 | Brc1cncc2c1CC[C@@H]1CNCCN21 [Compound 172, (R)-4-bromo-6,6a,7,8,9,10-hexahydro-5H-pyrazino[1,2-a][1,7]naphthyridine] | 72.3 | 13 |  | 
10 | c1cc(CC2CCCCO2)c2c(n1)N1CCNC[C@H]1CC2 (stereo partly drawn) [Compound 132, (6aR)-4-((tetrahydro-2H-pyran-2-yl)methyl)-6,6a,7,8,9,10-hexahydro-5H-pyrazino[1,2-a][1,8]naphthyridine] | 212 | 1090 |  | 
11 | c1ncc2c(c1CC1CCCCC1)CC[C@@H]1CNCCN21 [Compound 174, (R)-4-(cyclohexylmethyl)-6,6a,7,8,9,10-hexahydro-5H-pyrazino[1,2-a][1,7]naphthyridine] | 107 | 140 |  | 
12 | FC(F)(F)CCc1ccnc2c1CC[C@@H]1CNCCCN21 [Compound 157, (R)-4-(3,3,3-trifluoropropyl)-5,6,6a,7,8,9,10,11-octahydro-[1,4]diazepino[1,2-a][1,8]naphthyridine] | 1140 | 721 |  | 
13 | C/C=C/Cc1ccnc2c1CC[C@@H]1CNCCN21 [Compound 144, (R,E)-4-(but-2-en-1-yl)-6,6a,7,8,9,10-hexahydro-5H-pyrazino[1,2-a][1,8]naphthyridine] | 5.01 |  | 0.548 | 
14 | COCCc1ccnc2c1CC[C@@H]1CNCCN21 [Compound 107, (R)-4-(2-methoxyethyl)-6,6a,7,8,9,10-hexahydro-5H-pyrazino[1,2-a][1,8]naphthyridine] | 99.5 | 177 |  | 
15 | CCCc1ccnc2c1CC[C@@H]1CNCCN21 [Compound 113, (R)-4-propyl-6,6a,7,8,9,10-hexahydro-5H-pyrazino[1,2-a][1,8]naphthyridine] | 6.85 |  | 0.162 | EC50 (5-HT2C receptor [4]): 0.0656 nM
16 | N#CCCc1ccnc2c1CC[C@@H]1CNCCN21 [Compound 142, (R)-3-(6,6a,7,8,9,10-hexahydro-5H-pyrazino[1,2-a][1,8]naphthyridin-4-yl)propanenitrile] | 840 | 665 |  | 
17 | Clc1ncnc2c1CC[C@@H]1CNCCCN21 [Compound 160, (R)-4-chloro-5,6,6a,7,8,9,10,11-octahydropyrimido[5′,4′:5,6]pyrido[1,2-a][1,4]diazepine] | 100000 | 1830 |  | Ki (5-HT2C receptor [2]; read-out: DOI Binding 5HT2C): 5560 nM
18 | c1cc(COCC2CCOCC2)c2c(n1)N1CCNC[C@H]1CC2 [Compound 133, (R)-4-(((tetrahydro-2H-pyran-4-yl)methoxy)methyl)-6,6a,7,8,9,10-hexahydro-5H-pyrazino[1,2-a][1,8]naphthyridine] | 1670 | 844 |  | Ki (5-HT2C receptor [2]; read-out: DOI Binding 5HT2C): 1250 nM
19 | CN1CCN2c3nccc(CCC(F)(F)F)c3CC[C@@H]2C1 [Compound 168, (R)-8-methyl-4-(3,3,3-trifluoropropyl)-6,6a,7,8,9,10-hexahydro-5H-pyrazino[1,2-a][1,8]naphthyridine] | 58 | 331 |  | 
20 | CCc1ccnc2c1CC[C@@H]1CNCCN21 [Compound 110, (R)-4-ethyl-6,6a,7,8,9,10-hexahydro-5H-pyrazino[1,2-a][1,8]naphthyridine] | 16.1 |  | 0.562 | 
21 | CC(C)OCc1ccnc2c1CC[C@@H]1CNCCN21 [Compound 145, (R)-4-(isopropoxymethyl)-6,6a,7,8,9,10-hexahydro-5H-pyrazino[1,2-a][1,8]naphthyridine] | 222 | 209 |  | 
22 | Brc1ccnc2c1CC[C@@H]1CNCCCN21 [Compound 156, (R)-4-bromo-5,6,6a,7,8,9,10,11-octahydro-[1,4]diazepino[1,2-a][1,8]naphthyridine] | 1390 | 127 |  | 
23 | c1cc(CC2CCCC2)c2c(n1)N1CCNC[C@H]1CC2 [Compound 170, (R)-4-(cyclopentylmethyl)-6,6a,7,8,9,10-hexahydro-5H-pyrazino[1,2-a][1,8]naphthyridine] |  |  | 0.79 | 
24 | CCc1c(CCC#N)cnc2c1CC[C@@H]1CNCCN21 [Compound 162, (R)-3-(4-ethyl-6,6a,7,8,9,10-hexahydro-5H-pyrazino[1,2-a][1,8]naphthyridin-3-yl)propanenitrile] | 1260 | 251 |  | 
25 | c1csc(-c2ccnc3c2CC[C@@H]2CNCCN32)c1 [Compound 126, (R)-4-(thiophen-2-yl)-6,6a,7,8,9,10-hexahydro-5H-pyrazino[1,2-a][1,8]naphthyridine] | 68.8 | 122 |  | 
26 | CC(C)c1ccnc2c1CC[C@@H]1CNCCN21 [Compound 111, (R)-4-isopropyl-6,6a,7,8,9,10-hexahydro-5H-pyrazino[1,2-a][1,8]naphthyridine] |  |  | 0.874 | 
27 | CCCC(=O)Nc1ccnc2c1CC[C@@H]1CNCCN21 [Compound 125, (R)-N-(6,6a,7,8,9,10-hexahydro-5H-pyrazino[1,2-a][1,8]naphthyridin-4-yl)butyramide] |  |  |  | EC50 (5-HT2B receptor [6]): ≥ 100000 nM; EC50 (5-HT2C receptor [4]; [8]): 100000 nM; EC50 (5-HT2A receptor [5]): ≥ 100000 nM
28 | c1cc2c(cn1)N1CCNC[C@H]1CC2 [Compound 153, (R)-6,6a,7,8,9,10-hexahydro-5H-pyrazino[1,2-a][1,7]naphthyridine] |  |  |  | EC50 (5-HT2B receptor [6]): 779 nM; EC50 (5-HT2C receptor [4]; [8]): 329 nM; EC50 (5-HT2A receptor [5]; [9]): 100000 nM
29 | Clc1ccc(-c2ccnc3c2CC[C@@H]2CNCCN32)nc1 [Compound 146, (R)-4-(5-chloropyridin-2-yl)-6,6a,7,8,9,10-hexahydro-5H-pyrazino[1,2-a][1,8]naphthyridine] | 5390 | 1020 |  | Ki (5-HT2C receptor [2]; read-out: DOI Binding 5HT2C): 3110 nM

Source: patent US10836764B2, “5-HT2C receptor agonists and compositions and methods of use” (Arena Pharmaceuticals, Inc., priority 2016, dated 2020)
